Source: patent publication US8530486B2, “Quinazolines and related heterocyclic compounds, and their therapeutic use” (Vereniging Voor Christelijk Hoger Onderwijs, …, priority 2008, dated 2013)
pKi: −log10 of the molar value.

Biological target: T1, human H4 receptor (Homo sapiens, UniProt Q9H3N8)
T1 construct: expressed in transfected cells; host or cells: HEK 293T cells, transient transfection with polyethyleneimine
Assay: [3H]Histamine binding assay (radioligand displacement at the human H4 receptor)
Conditions: [3H]histamine displacement, membranes of HEK 293T cells transfected with human H4R; read-out: Activity Class* (Ki in H4 binding assay)

pKi | Structure (SMILES)
> 6.00 | CN1CCN(c2nc(NCCS(=O)(=O)Nc3ccc(I)cc3)c3cc(Cl)ccc3n2)CC1 [Example 8, 2-(6-chloro-2-(4-methylpiperazin-1-yl)quinazoline-4-amino)-N-(4-iodophenyl)ethanesulfonamide]
> 6.00 | CN1CCN(c2nc(NCCS(=O)(=O)Nc3ccccc3)c3cc(Cl)c(Cl)cc3n2)CC1 [Example 12, 2-(6,7-dichloro-2-(4-methylpiperazin-1-yl)quinazoline-4-amino)-N-phenylethanesulfonamide]
> 6.00 | CN1CCN(c2nc(NCCS(=O)(=O)Nc3ccccc3)c3cc(Cl)cc(Cl)c3n2)CC1 [Example 14]
> 6.00 | CN1CCN(c2nc(NCCS(=O)(=O)Nc3ccccc3)c3ccc(Cl)c(Cl)c3n2)CC1 [Example 16, 2-(7,8-dichloro-2-(4-methylpiperazin-1-yl)quinazoline-4-amino)-N-phenylethanesulfonamide]
> 6.00 | CN1CCN(c2nc(NCCS(=O)(=O)Nc3ccccc3)c3c(Cl)cc(Cl)cc3n2)CC1 [Example 17, 2-(5,7-dichloro-2-(4-methylpiperazin-1-yl)quinazoline-4-amino)-N-phenylethanesulfonamide]
